These results are taken from patent publication US20220142164A1, “HERBICIDAL COMPOUNDS” (SYNGENTA CROP PROTECTION AG, priority 2019, published 2022).

Common to all, as to experiment: Post-emergence efficacy, glasshouse pot test
Common to all, as to assay type: in vivo
What all share (conditions): 312 h, post-emergence spray, Application Rate 500 g/Ha, evaluated after 13 days, 100=total damage to plant, 0=no damage to plant

Test [1] has as its system Digitaria sanguinalis (DIGSA). On the procedure: (§1) Seeds of a variety of test species were sown in standard soil in pots. After cultivation for 14 days (post-emergence) under controlled conditions in a glasshouse (at 24/16° C., day/night; 14 hours light; 65% humidity), the plants were sprayed with an aqueous spray solution derived from the dissolution of the technical active ingredient formula (I) in a small amount of acetone and a special solvent and emulsifier mixture referred to as IF50 (11.12% Emulsogen EL360 TM+44.44% N-methylpyrrolidone+44.44% Dowanol DPM glycol ether), to create a 50 g/I solution which was then diluted to required concentration using 0.25% or 1% Empicol ESC70 (Sodium lauryl ether sulphate)+1% ammonium sulphate as diluent. The test plants were then grown in a glasshouse under controlled conditions (at 24/16° C., day/night; 14 hours light; 65% humidity) and watered twice daily. After 13 days the test was evaluated (100=total damage to plant; 0=no damage to plant). Ipomoea hederacea (IPOHE), Euphorbia heterophylla (EPHHL), Chenopodium album (CHEAL), Amaranthus palmeri (AMAPA), Lolium perenne (LOLPE), Digitaria sanguinalis (DIGSA), Eleusine indica (ELEIN), Echinochloa crus-galli (ECHCG), Setaria faberi (SETFA)

Test [2] has as its system Chenopodium album (CHEAL). On the procedure:
as §1

A further test relates to Setaria faberi (SETFA). On the procedure:
as §1

For another test, the system named is Eleusine indica (ELEIN). On the procedure: as §1
Test [3] has as its system Euphorbia heterophylla (EPHHL). On the procedure:
as §1

The subject of test [4] is Echinochloa crus-galli (ECHCG). On the procedure: as §1
The test system of a further test is Lolium perenne (LOLPE). On the procedure:
as §1

The subject of test [5] is Ipomoea hederacea (IPOHE). On the procedure: as §1
For test [6], the system named is Amaranthus palmeri (AMAPA). On the procedure: as §1

Consider `COC(=O)C(C)NC(=O)C[n+]1ccc(-c2ncns2)cc1` (stereo not drawn) [Compound A8], for which the pest or weed control (commonly how far the test organism was held down) at 500 g/ha is 100% in test [1]; 90% in [2]; 100% in the test with Setaria faberi (SETFA); 100% in the test on Eleusine indica (ELEIN); 100% in test [3]; 100% in test [4]. Further, the pest or weed control at 500 g/ha was 60% in the test on Lolium perenne (LOLPE), 100% in test [5] and 100% in test [6].
On to `O=C(C[n+]1ccc(-c2ncns2)cc1)NC1(C(=O)O)CC1` [Compound A16], for which the pest or weed control at 500 g/ha in test [1] amounted to 80%; in [2], 90%; in the test with Setaria faberi (SETFA), 100%; in the test with Eleusine indica (ELEIN) it was 40%; in test [3] it was 90%; in test [4], 90%. The pest or weed control at 500 g/ha worked out at 50% in the test with Lolium perenne (LOLPE), 50% in test [5] and 100% in test [6].
On to `O=C(CC[n+]1ccc(-c2ncns2)cc1)NCS(=O)(=O)[O-]` [Compound A14, [3-[4-(1,2,4-thiadiazol-5-yl)pyridin-1-ium-1-yl]propanoylamino]methanesulfonate], for which the pest or weed control at 500 g/ha worked out at 100% in [1]; 90% in test [2]; 70% in the test on Setaria faberi (SETFA); 60% in the test with Eleusine indica (ELEIN); 20% in [3]; 70% in [4]. The pest or weed control at 500 g/ha in the test on Lolium perenne (LOLPE) came to 10%; in test [5], 30%; in [6] it was 100%.
`COC(=O)CCNC(=O)C[n+]1ccc(-c2ncns2)cc1` [Compound A2, methyl 3-[[-2-[4-(1,2,4-thiadiazol-5-yl)pyridin-1-ium-1-yl]acetyl]amino]propanoate bromide]: the pest or weed control at 500 g/ha in [1] was found to be 40%; in test [2], 90%; with Setaria faberi (SETFA), 50%; with Eleusine indica (ELEIN) it was 30%; in test [3], 40%; in test [4], 20%. The pest or weed control at 500 g/ha stood at 10% with Lolium perenne (LOLPE), 50% in test [5] and 80% in test [6].
As to `CN(CCS(=O)(=O)[O-])C(=O)C[n+]1ccc(-c2ncns2)cc1` [Compound A10], the pest or weed control at 500 g/ha in [1] stood at 40%; in test [2], 20%; with Setaria faberi (SETFA), 50%; in the test with Eleusine indica (ELEIN) it was 40%; in test [3] it was 80%; in test [4], 30%. Also, the pest or weed control at 500 g/ha in the test with Lolium perenne (LOLPE) was determined as 20%; in [5], 50%; in test [6], 90%.
Turning to `O=C(C[n+]1ccc(-c2ncns2)cc1)NCCS(=O)(=O)[O-]` [Compound A9, 2-[[2-[4-(1,2,4-thiadiazol-5-yl)pyridin-1-ium-1-yl]acetyl]amino]ethanesulfonate], the pest or weed control at 500 g/ha is 30% in test [1]; 70% in test [2]; 60% in the test with Setaria faberi (SETFA); 50% in the test with Eleusine indica (ELEIN); 90% in test [3]; 30% in [4]. The pest or weed control at 500 g/ha was determined as 30% in the test with Lolium perenne (LOLPE), 60% in [5] and 90% in test [6].
As for `O=C(O)CNC(=O)C[n+]1ccc(-c2ncns2)cc1` [Compound A3, 2-[[2-[4-(1,2,4-thiadiazol-5-yl)pyridin-1-ium-1-yl]acetyl]amino]acetic acid chloride], the pest or weed control at 500 g/ha in test [1] worked out at 100%; in test [2], 90%; in the test with Setaria faberi (SETFA), 100%; with Eleusine indica (ELEIN) it was 100%; in [3], 100%; in test [4], 100%. Besides, the pest or weed control at 500 g/ha was determined as 70% in the test with Lolium perenne (LOLPE), 100% in test [5] and 90% in [6].
Consider `O=C(O)CCS(=O)(=O)C[n+]1ccc(-c2ncns2)cc1` [Compound A18, 3-[[4-(1,2,4-thiadiazol-5-yl)pyridin-1-ium-1-yl]methylsulfonyl]propanoic acid 2,2,2-trifluoroacetate], for which the pest or weed control at 500 g/ha in test [1] is 100%; in test [2], 90%; in the test on Setaria faberi (SETFA), 100%; in the test with Eleusine indica (ELEIN), 100%; in test [3] it was 60%; in test [4], 90%. The pest or weed control at 500 g/ha with Lolium perenne (LOLPE) was found to be 40%; in [5] it was 70%; in test [6] it was 100%.
On to `CN(CC(=O)O)C(=O)C[n+]1ccc(-c2ncns2)cc1` [Compound A6], for which the pest or weed control at 500 g/ha in test [1] is 90%; in [2], 90%; with Setaria faberi (SETFA) it was 40%; in the test on Eleusine indica (ELEIN), 20%; in test [3], 90%; in [4], 60%. For the same compound, the values for the pest or weed control at 500 g/ha (in the test on Lolium perenne (LOLPE); in [5]; in [6]) were 40%, 40% and 100%, respectively.
For `O=C(O)CCNC(=O)C[n+]1ccc(-c2ncns2)cc1` [Compound A4, 3-[[2-[4-(1,2,4-thiadiazol-5-yl)pyridin-1-ium-1-yl]acetyl]amino]propanoic Acid Chloride], the pest or weed control at 500 g/ha in test [1] came out at 100%; in [2], 90%; in the test with Setaria faberi (SETFA), 70%; in the test on Eleusine indica (ELEIN), 100%; in test [3], 90%; in test [4] it was 70%. For the same compound, the pest or weed control at 500 g/ha (with Lolium perenne (LOLPE); in test [5]; in test [6]) was 90% throughout.
Consider `CC(NC(=O)C[n+]1ccc(-c2ncns2)cc1)C(=O)O` (stereo not drawn) [Compound A7], for which the pest or weed control at 500 g/ha came to 100% in test [1]; 90% in [2]; 100% in the test on Setaria faberi (SETFA); 100% in the test with Eleusine indica (ELEIN); 100% in [3]; 100% in test [4]. Besides, the pest or weed control at 500 g/ha in the test on Lolium perenne (LOLPE) was determined as 80%; in test [5], 100%; in test [6], 100%.
`COC(=O)CNC(=O)C[n+]1ccc(-c2ncns2)cc1` [Compound A5, methyl 2-[[2-[4-(1,2,4-thiadiazol-5-yl)pyridin-1-ium-1-yl]acetyl]amino]acetate bromide]: the pest or weed control at 500 g/ha in test [1] stood at 100%; in test [2], 90%; in the test on Setaria faberi (SETFA), 60%; with Eleusine indica (ELEIN) it was 100%; in test [3], 80%; in test [4] it was 90%. In addition, the figures for the pest or weed control at 500 g/ha (with Lolium perenne (LOLPE); in test [5]; in test [6]) were 30%, 80% and 90%, respectively.
Turning to `O=C(O)CNC(=O)CC[n+]1ccc(-c2ncns2)cc1` [Compound A13], the pest or weed control at 500 g/ha amounted to 70% in test [1]; 30% in test [2]; 80% in the test with Setaria faberi (SETFA); 70% in the test with Eleusine indica (ELEIN); 60% in test [3]; 50% in test [4]. Moreover, the pest or weed control at 500 g/ha was determined as 40% in the test on Lolium perenne (LOLPE), 20% in test [5] and 100% in [6].
On to `COC(=O)CN(C)C(=O)C[n+]1ccc(-c2ncns2)cc1` [Compound A1], for which the pest or weed control at 500 g/ha in [1] was 0%; in test [2], 10%; in the test on Setaria faberi (SETFA), 0%; in the test with Eleusine indica (ELEIN), 10%; in test [3], 10%; in [4], 0%. The values for the pest or weed control at 500 g/ha (with Lolium perenne (LOLPE); in test [5]; in [6]) were 10%, 10% and 0%, respectively.
